Measurements: the supplement of paper PMC5908809

Assays:
[1] = tested on: normal NK cells expanded with K562-aAPC; assay: percent inhibition of viability; higher = more inhibition; settings: 72 h, IL-2 2.5 ng/mL
Procedure: (§1)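 Drug sensitivity and resistance testing on K562-aAPC-expanded normal NK cells: 5 concentrations (10-fold steps over a 10,000-fold range), 72 h at 37 °C, viability by CellTiter-Glo normalised to DMSO and benzethonium chloride controls; DSS from the fitted curve.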

[2] = tested on: normal NK cells expanded with K562-aAPC; assay: drug sensitivity score (DSS) (DSS units); higher = more sensitive; extreme values may be limits of the assay; settings: 72 h; IL-2 2.5 ng/mL
Procedure: as §1

NK-YS (IL-2 2.5 ng/mL) [3] = assay: percent inhibition of viability; higher = more inhibition; settings: 72 h
[4] = tested on: normal primary NK cells, pool 2 (3 donors) (IL-2 2.5 ng/mL); assay: as above; settings: 72 h
YT (IL-2 2.5 ng/mL) [5] = assay: as above; settings: 72 h
[6] = tested on: normal primary NK cells, pool 3 (3 donors) (IL-2 2.5 ng/mL); assay: as above; settings: 72 h
SNK-6 (IL-2 2.5 ng/mL) [7] = assay: as above; settings: 72 h
KAI3 (IL-2 2.5 ng/mL) [8] = assay: as above; settings: 72 h
NKL (IL-2 2.5 ng/mL) [9] = assay: as above; settings: 72 h
KHYG-1 (IL-2 2.5 ng/mL) [10] = assay: as above; settings: 72 h
IMC-1 (IL-2 20 ng/mL) [11] = assay: as above; settings: 72 h
[12] = tested on: normal primary NK cells, pool 1 (3 donors) (IL-2 2.5 ng/mL); assay: as above; settings: 72 h
DERL-7 (IL-2 2.5 ng/mL) [13] = assay: as above; settings: 72 h
NK-92 (IL-2 2.5 ng/mL) [14] = assay: as above; settings: 72 h
[15] = tested on: normal primary NK cells, pool 1 (3 donors), resting (IL-2 0 ng/mL); assay: as above; settings: 72 h
NK-YS (IL-2 2.5 ng/mL) [16] = assay: drug sensitivity score (DSS) (DSS units); higher = more sensitive; extreme values may be limits of the assay; settings: 72 h
[17] = tested on: normal primary NK cells, pool 2 (3 donors) (IL-2 2.5 ng/mL); assay: as above; settings: 72 h
YT (IL-2 2.5 ng/mL) [18] = assay: as above; settings: 72 h
[19] = tested on: normal primary NK cells, pool 3 (3 donors) (IL-2 2.5 ng/mL); assay: as above; settings: 72 h
SNK-6 (IL-2 2.5 ng/mL) [20] = assay: as above; settings: 72 h
KAI3 (IL-2 2.5 ng/mL) [21] = assay: as above; settings: 72 h
NKL (IL-2 2.5 ng/mL) [22] = assay: as above; settings: 72 h
KHYG-1 (IL-2 2.5 ng/mL) [23] = assay: as above; settings: 72 h
IMC-1 (IL-2 20 ng/mL) [24] = assay: as above; settings: 72 h
[25] = tested on: normal primary NK cells, pool 1 (3 donors) (IL-2 2.5 ng/mL); assay: as above; settings: 72 h
DERL-7 (IL-2 2.5 ng/mL) [26] = assay: as above; settings: 72 h
NK-92 (IL-2 2.5 ng/mL) [27] = assay: as above; settings: 72 h
[28] = tested on: normal primary NK cells, pool 1 (3 donors), resting (IL-2 0 ng/mL); assay: as above; settings: 72 h

N#CC(c1ccnc(OCc2ccc(CN3CCOCC3)cc2)n1)c1nc2ccccc2s1 (stereo not drawn) [Bentamapimod] (max concentration tested 10000 nM)
percent inhibition of viability [%]
Settings | 1 nM | 10 nM | 100 nM | 1000 nM | 10000 nM
DERL-7 (IL-2 2.5 ng/mL) [13] | -1.64 | -1.25 | -0.32 | 14.8 | 51.5
IMC-1 (IL-2 20 ng/mL) [11] | 0.67 | -4.76 | 0.93 | 6.64 | 58.2
KAI3 (IL-2 2.5 ng/mL) [8] | -1.88 | -7.11 | -2.63 | 14.7 | 40.9
KHYG-1 (IL-2 2.5 ng/mL) [10] | -0.61 | -1.53 | 4.6 | 13.5 | 64
NK-92 (IL-2 2.5 ng/mL) [14] | -0.51 | -7.45 | -6.19 | 10.8 | 47.6
NK-YS (IL-2 2.5 ng/mL) [3] | -3.99 | -3.72 | 3.63 | 20.3 | 47.6
NKL (IL-2 2.5 ng/mL) [9] | -15.9 | -16.8 | -9.05 | 13.2 | 71.2
SNK-6 (IL-2 2.5 ng/mL) [7] | 8.11 | -3.58 | -13.1 | -25.4 | 8.78
YT (IL-2 2.5 ng/mL) [5] | -4.27 | -0.56 | 3.3 | 13.5 | 56.8
[1] | 1.11 | -7.13 | 0.02 | 9.12 | 35.7
[4] | -16.9 | -6.81 | -3.2 | -3.66 | 38.2
[6] | -6.62 | -9.78 | -6.35 | -8.64 | 19.9
[12] | -3.1 | -0.66 | -15.6 | -7.74 | 4.64
[15] | 3.62 | 7.45 | -14.2 | -14.4 | -16.2

Settings | drug sensitivity score
DERL-7 (IL-2 2.5 ng/mL) [26] | 4.97
IMC-1 (IL-2 20 ng/mL) [24] | 4.25
KAI3 (IL-2 2.5 ng/mL) [21] | 4.12
KHYG-1 (IL-2 2.5 ng/mL) [23] | 5.69
NK-92 (IL-2 2.5 ng/mL) [27] | 4.21
NK-YS (IL-2 2.5 ng/mL) [16] | 4.74
NKL (IL-2 2.5 ng/mL) [22] | 6.1
SNK-6 (IL-2 2.5 ng/mL) [20] | 0
YT (IL-2 2.5 ng/mL) [18] | 5.2
[2] | 3.1
[17] | 1.6
[19] | 0.34
[25] | 0
[28] | 0

CC[C@@H]1C(=O)OC[C@@H]1Cc1cncn1C [Pilocarpine] (max concentration tested 40000 nM)
percent inhibition of viability [%]
Settings | 4 nM | 40 nM | 400 nM | 4000 nM | 40000 nM
DERL-7 (IL-2 2.5 ng/mL) [13] | 1.42 | -1.75 | 0.14 | 2.27 | -9.94
IMC-1 (IL-2 20 ng/mL) [11] | 0.9 | 2.74 | 3.37 | 7.24 | 10.8
KAI3 (IL-2 2.5 ng/mL) [8] | -4.19 | -2.59 | -0.69 | 0.97 | 10.8
KHYG-1 (IL-2 2.5 ng/mL) [10] | -5.1 | 0.26 | 0.29 | 8.1 | 13.5
NK-92 (IL-2 2.5 ng/mL) [14] | -3.6 | -6.46 | -0.49 | 3.22 | 17.6
NK-YS (IL-2 2.5 ng/mL) [3] | -0.26 | 2 | 1.94 | 9.78 | 16
NKL (IL-2 2.5 ng/mL) [9] | 0.76 | -2.78 | 1.71 | 1.49 | 4.41
SNK-6 (IL-2 2.5 ng/mL) [7] | 7.63 | 1.2 | 25.3 | 7.63 | 17.4
YT (IL-2 2.5 ng/mL) [5] | 0.63 | -1.77 | 4.55 | 7.37 | 12.4
[1] | -3.76 | -0.92 | 0.04 | 4.29 | 9.84
[4] | -4.81 | -4.05 | -0.5 | 4.72 | -5.35
[6] | -10.7 | -14.3 | -6.23 | 1.83 | -3.82
[12] | -1.79 | 4.63 | -1.46 | 6 | 3.9
[15] | 2.62 | 11.3 | -11.4 | 2.11 | -5.32

Settings | drug sensitivity score
DERL-7 (IL-2 2.5 ng/mL) [26] | 0
IMC-1 (IL-2 20 ng/mL) [24] | 0
KAI3 (IL-2 2.5 ng/mL) [21] | 0.01
KHYG-1 (IL-2 2.5 ng/mL) [23] | 0.51
NK-92 (IL-2 2.5 ng/mL) [27] | 0.79
NK-YS (IL-2 2.5 ng/mL) [16] | 0.76
NKL (IL-2 2.5 ng/mL) [22] | 0
SNK-6 (IL-2 2.5 ng/mL) [20] | 0
YT (IL-2 2.5 ng/mL) [18] | 0.14
[2] | 0
[17] | 0
[19] | 0
[25] | 0
[28] | 0
